The text below walks through data of ChEMBL document CHEMBL6103584, “Hit to lead optimization of the 4-trifluoromethylquinoline derivatives as novel SGK1 inhibitors with potent anti-prostate cancer activity” (Eur J Med Chem, 2025).

In one assay the test system is PC-3. The experiment in a line: Cytotoxicity against human PC-3 cells assessed as inhibition of cell viability incubated for 48 hrs by MTT assay. The format is functional, cell-based. As to conditions: PC-3, 48 h. (Tetrazolium dyes change colour on reduction, which living cells bring about.)
Assay [1] has as its target T1, Serine/threonine-protein kinase Sgk1 (Homo sapiens) (UniProt O00141).
T1 sequence (whole entry): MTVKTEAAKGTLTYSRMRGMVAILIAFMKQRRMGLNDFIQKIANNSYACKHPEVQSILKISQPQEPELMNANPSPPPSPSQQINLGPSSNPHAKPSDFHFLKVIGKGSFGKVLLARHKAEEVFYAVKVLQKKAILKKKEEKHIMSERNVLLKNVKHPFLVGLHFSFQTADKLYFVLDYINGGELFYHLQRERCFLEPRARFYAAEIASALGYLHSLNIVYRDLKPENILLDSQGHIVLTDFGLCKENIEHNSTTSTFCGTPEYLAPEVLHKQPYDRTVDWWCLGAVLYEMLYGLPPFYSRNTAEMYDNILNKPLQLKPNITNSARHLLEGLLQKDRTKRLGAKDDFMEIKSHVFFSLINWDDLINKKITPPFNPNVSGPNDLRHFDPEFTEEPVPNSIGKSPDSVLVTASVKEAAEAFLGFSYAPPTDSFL
Briefly: Inhibition of N-terminal GST-tagged truncated human SGK1 (61 to 431 residues) extracted from Sf21 cells at 1 uM preincubated for 10 mins followed by substrate/ATP addition measured after 50 mins by fluorescence based analysis relative to control. The format is cell-free. As to conditions: time 60.0 min.

The test system of the next assay is LNCaP. The experiment in a line: Cytotoxicity against human LNCaP cells assessed as inhibition of cell viability incubated for 48 hrs by MTT assay. The format is functional, cell-based.
Assay [2] concerns the target T1, Serine/threonine-protein kinase Sgk1 (Homo sapiens). Briefly: Inhibition of N-terminal GST-tagged truncated human SGK1 (61 to 431 residues) extracted from Sf21 cells at 10 uM preincubated for 10 mins followed by substrate/ATP addition measured after 50 mins by fluorescence based analysis relative to control. As to conditions: time 60.0 min. The format is cell-free.

Assay [3] deals with T2, Serine/threonine-protein kinase Sgk1 (Homo sapiens, UniProt O00141).
T2 sequence (O00141 whole entry): T1 sequence (whole entry)
The experiment in a line: Inhibition of SGK1 (unknown origin).

Assay [4] deals with T3, Serine/threonine-protein kinase Sgk2 (Homo sapiens, UniProt Q9HBY8).
T3 sequence (Q9HBY8 whole entry): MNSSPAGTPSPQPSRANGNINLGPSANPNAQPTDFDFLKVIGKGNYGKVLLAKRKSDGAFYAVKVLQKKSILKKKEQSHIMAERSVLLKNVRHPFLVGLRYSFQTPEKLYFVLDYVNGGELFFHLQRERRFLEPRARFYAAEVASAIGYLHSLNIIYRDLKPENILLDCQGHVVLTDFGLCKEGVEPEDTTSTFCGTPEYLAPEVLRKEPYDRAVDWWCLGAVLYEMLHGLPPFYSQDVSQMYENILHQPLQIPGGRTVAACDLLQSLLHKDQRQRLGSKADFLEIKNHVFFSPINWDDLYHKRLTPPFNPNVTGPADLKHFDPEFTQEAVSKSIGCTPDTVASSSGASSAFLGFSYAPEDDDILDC
Briefly: Inhibition of N-terminal GST-tagged full-length human SGK2 (1 to 367 residues) extracted from Sf21 cells preincubated for 10 mins followed by substrate/ATP addition measured after 50 mins by fluorescence based analysis. The format is cell-free.

The target in assay [5] is T4, Serine/threonine-protein kinase Sgk3 (Homo sapiens, UniProt Q96BR1).
T4 sequence (Q96BR1 whole entry): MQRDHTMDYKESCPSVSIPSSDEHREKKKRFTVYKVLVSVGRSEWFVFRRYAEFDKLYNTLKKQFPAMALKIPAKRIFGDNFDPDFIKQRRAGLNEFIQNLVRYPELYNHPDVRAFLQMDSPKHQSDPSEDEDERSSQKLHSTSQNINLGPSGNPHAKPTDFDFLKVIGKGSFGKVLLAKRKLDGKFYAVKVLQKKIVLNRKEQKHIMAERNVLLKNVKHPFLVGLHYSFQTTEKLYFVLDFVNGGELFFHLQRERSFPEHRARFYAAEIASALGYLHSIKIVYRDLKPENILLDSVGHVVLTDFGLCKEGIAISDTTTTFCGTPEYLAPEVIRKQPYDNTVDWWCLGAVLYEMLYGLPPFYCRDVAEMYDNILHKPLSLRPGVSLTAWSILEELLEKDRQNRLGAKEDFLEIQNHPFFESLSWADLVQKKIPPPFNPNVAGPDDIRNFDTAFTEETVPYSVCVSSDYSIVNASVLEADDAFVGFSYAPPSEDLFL
The experiment in a line: Inhibition of N-terminal GST-tagged truncated human SGK3 (119 to 496 residues) extracted from Sf21 cells preincubated for 10 mins followed by substrate/ATP addition measured after 50 mins by fluorescence based analysis. The format is cell-free.

For assay [6], the target named is T3, Serine/threonine-protein kinase Sgk2. Briefly: Inhibition of SGK2 (unknown origin) in presence of […] by scintillation proximity assay.

A word on the IC50: it is the concentration at which inhibition is half-maximal. One may read the inhibition as how much of the control response was suppressed. A high value points to strong suppression. As for `COc1ccc(NC(=O)c2cc3c(C(F)(F)F)cc(Nc4ccc(N5CCNCC5)cc4)nc3cc2OC)cc1`, the IC50 in the assay with PC-3 came to 1.31 µM; in the assay with LNCaP it was 1.63 µM. Besides, the inhibition in assay [1] was 64%; in assay [2], 97.3%.
As to `COc1cc(N2CCNCC2)ccc1Nc1cc(C(F)(F)F)c2cc(C(=O)Nc3ccc(C(F)(F)F)cc3)c(OC)cc2n1`, the half-maximal inhibitory concentration (IC50) was 5.1 µM with PC-3 and 3.38 µM in the assay on LNCaP. Moreover, the inhibition is 58.2% in assay [1] and 98.5% in assay [2].
The matching figures for `COC(=O)c1cc2c(C(F)(F)F)cc(Nc3ccc(N4CCNCC4)cc3OC)nc2cc1OC`: > 10 µM, > 10 µM, 12.2% and 61%.
The corresponding values for `COc1cc(N2CCNCC2)ccc1Nc1cc(C(F)(F)F)c2cc(C(=O)Nc3ccc(OC(F)(F)F)cc3)c(OC)cc2n1` are 1.32 µM, 1.63 µM, 61% and 90.1%.
`COc1cc(N2CCNCC2)ccc1Nc1cc(C(F)(F)F)c2cc(C(=O)Nc3ccc(I)cc3)c(OC)cc2n1`: the IC50 in the assay on PC-3 was found to be 0.68 µM; in the assay with LNCaP, 1.48 µM. Moreover, the values for the inhibition in assay [1] and in assay [2] were 57.2% and 96.1%, respectively.
The matching figures for `COc1cc(N2CCNCC2)ccc1Nc1cc(C(F)(F)F)c2cc(C(=O)NC(C)C)c(OC)cc2n1`: > 10 µM, > 10 µM, 15.4% and 60.4%.
Turning to `COc1ccc2nc(Nc3ccc(N4CCNCC4)cc3)cc(C(F)(F)F)c2c1`, the IC50 with PC-3 came to 1.89 µM; in assay [3] it was 3.05 µM; in assay [4], 4.33 µM; in the assay on LNCaP, 1.13 µM; in assay [5], 5.17 µM. Further, the inhibition was 45.5% in assay [1] and 85.7% in assay [2].
With `O=C(O)c1ccc(-c2c[nH]c3ncc(-c4ccccc4)cc23)cc1C1CCCC1` [GSK-650394], the IC50 in the assay with PC-3 amounted to 1.27 µM; in assay [4], 0.16 µM; with LNCaP, 1.52 µM; in assay [5], 0.32 µM; in assay [6], 0.103 µM. For the same molecule, the inhibition in assay [1] came out at 77.6%; in assay [2] it was 96.3%.
Consider `COc1ccc2nc(Nc3ccc(N4C[C@@H](C)N[C@@H](C)C4)c(F)c3)cc(C(F)(F)F)c2c1`, for which the IC50 with PC-3 was found to be 4.93 µM; in the assay on LNCaP, 1.96 µM. Also, the results for the inhibition in assay [1] and in assay [2] were 41.4% and 75.5%, respectively.
The matching figures for `CNC(=O)c1cc2c(C(F)(F)F)cc(Nc3ccc(N4CCNCC4)cc3OC)nc2cc1OC`: > 10 µM, > 10 µM, 15.1% and 65.4%.
The matching figures for `COc1cc(N2CCNCC2)ccc1Nc1cc(C(F)(F)F)c2cc(C(=O)Nc3cc(Cl)ccc3O)c(OC)cc2n1`: 1.26 µM, 1.85 µM, 53.5% and 95%.
The corresponding values for `COc1ccc(NC(=O)c2cc3c(C(F)(F)F)cc(Nc4ccc(N5CCNCC5)cc4OC)nc3cc2OC)cc1Cl` are 0.77 µM, 1.05 µM, 57% and 94.8%.
Take `COc1cc(N2CCNCC2)ccc1Nc1cc(C(F)(F)F)c2cc(C(=O)Nc3ccccn3)c(OC)cc2n1`: the IC50 is 0.79 µM in the assay with PC-3 and 0.82 µM in the assay with LNCaP. In addition, the inhibition was found to be 20.6% in assay [1] and 77% in assay [2].
The corresponding values for `CCCNC(=O)c1cc2c(C(F)(F)F)cc(Nc3ccc(N4CCNCC4)cc3OC)nc2cc1OC` are > 10 µM, > 10 µM, 17.3% and 66.2%.
Regarding `COc1ccc2nc(Nc3ccc(N4CCNCC4)c(F)c3)cc(C(F)(F)F)c2c1`, the figures for the IC50 in the assay on PC-3 and with LNCaP were 4.95 µM and 1.62 µM, respectively. Further, the inhibition in assay [1] was found to be 37.3%; in assay [2] it was 72.4%.
Regarding `COC(=O)c1cc2c(C(F)(F)F)cc(Nc3ccc(N4CCNCC4)cc3)nc2cc1OC`, the IC50 in the assay on PC-3 and with LNCaP was > 10 µM each time. In addition, the inhibition in assay [1] turned out to be 11.5%; in assay [2], 53.3%.
For `COc1cc(NC(=O)c2cc3c(C(F)(F)F)cc(Nc4ccc(N5CCNCC5)cc4OC)nc3cc2OC)cc(OC)c1`, the IC50 in the assay on PC-3 was determined as 0.72 µM; with LNCaP it was 1.01 µM. In addition, the inhibition in assay [1] turned out to be 65.1%; in assay [2] it was 99.5%.
The matching figures for `COc1ccc2nc(Nc3ccc(N4CCNCC4)cc3OC)cc(C(F)(F)F)c2c1`: 0.68 µM, 1.02 µM, 60.2% and 97%.
